Consider 11 compounds from ChEMBL document CHEMBL1201862, “PubChem BioAssay data set” (2004).

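Five compound concentrations were applied to cells in 96-well plates for 48 hours; endpoints were derived by simple linear interpolation of the resulting dose-response curve. GI50 = concentration required for 50% inhibition of growth.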 Active and inactive are the calls of the source. Cut-off read from the data, not from the text of the source: active = GI50 up to about 1.1 µM and inactive = higher.

Among the test systems are SN12C; HCT-15; RXF 393; OVCAR-3; SK-MEL-2; SNB-19; SK-MEL-5; OVCAR-5; K562; MCF7; IGROV-1; PC-3; SNB-75; UACC-62; M14; Hs-578T; T47D; KM12; ACHN; HOP-92.
What all share (test): NCI-60 cell line screen, 48 h

As to `CCOP(=O)(/C=C/n1ccc(N)nc1=O)OCC`, the GI50 in the assay on SN12C was > 100 µM (inactive); in the assay on HCT-15, greater than 100 µM; in the assay with RXF 393, > 100 µM (inactive); with OVCAR-3 it was > 100 µM (inactive); in the assay with SK-MEL-2, > 100 µM (inactive); with SNB-19 it was > 100 µM (inactive). The GI50 with SK-MEL-5, in the assay on OVCAR-5, in the assay on K562, in the assay with MCF7, in the assay on IGROV-1 and with PC-3 was > 100 µM (inactive) each time. The GI50 in the assay with SNB-75, in the assay with UACC-62, in the assay on M14, in the assay on Hs-578T, with T47D and with KM12 was > 100 µM (inactive) throughout. The GI50 in the assay on ACHN is > 100 µM (inactive).

For `CCOC(=O)C1=CNC2=N[C@H]3CCCC[C@@H]3N2C1=O`, the GI50 is > 100 µM (inactive) with SN12C; greater than 100 µM in the assay on HCT-15; > 100 µM (inactive) in the assay on OVCAR-3; > 100 µM (inactive) with SK-MEL-2; > 100 µM (inactive) in the assay on SNB-19; > 100 µM (inactive) with SK-MEL-5. The GI50 with OVCAR-5, with K562, with MCF7, in the assay with IGROV-1, in the assay with HOP-92 and with PC-3 was > 100 µM (inactive) in each case. Besides, the GI50 in the assay on SNB-75, with UACC-62, in the assay on M14, with Hs-578T, in the assay with T47D and with KM12 was > 100 µM (inactive) each time. In addition, the GI50 with ACHN was > 100 µM (inactive).

Take `Cc1ccc(CC(=O)Nc2ccc(NC(=O)CNC(=O)/C=C/c3ccc(-c4ccccc4)cc3)cc2C(=O)c2ccccc2)cc1`: the GI50 in the assay with SN12C was 2.74 µM (inactive); in the assay on HCT-15, 3.69 µM; in the assay with RXF 393, 2.38 µM (inactive); in the assay on OVCAR-3, 4.98 µM (inactive); in the assay with SK-MEL-2, 13.9 µM (inactive); with SNB-19, 4.57 µM (inactive). Besides, the GI50 in the assay on SK-MEL-5 is 1.69 µM (inactive); in the assay on OVCAR-5, 4.48 µM (inactive); in the assay on K562, 3.33 µM (inactive); with MCF7, 1.82 µM (inactive); in the assay with IGROV-1, 8.24 µM (inactive); in the assay with HOP-92, 4.17 µM (inactive). In addition, the GI50 with PC-3 is 1.98 µM (inactive); in the assay on UACC-62, 13.1 µM (inactive); with M14 it was 4.81 µM (inactive); with Hs-578T it was 4.71 µM (inactive); with T47D, 1.76 µM (inactive); in the assay with KM12, 3.56 µM (inactive). Besides, the GI50 in the assay on ACHN is 4.8 µM (inactive).

Turning to `COc1ccc(C2Oc3c(cccc3OC)C=C2[N+](=O)[O-])cc1OC` (stereo unspecified), the GI50 in the assay with SN12C is 5.55 µM (inactive); with HCT-15, 3.46 µM; in the assay with RXF 393, 2.57 µM (inactive); in the assay on OVCAR-3, 11.9 µM (inactive); with SNB-19 it was 17.3 µM (inactive); in the assay with SK-MEL-5, 4.14 µM (inactive). In addition, the GI50 was 13.8 µM (inactive) with OVCAR-5; 2.58 µM (inactive) in the assay on K562; 4.12 µM (inactive) with MCF7; 11.9 µM (inactive) in the assay with IGROV-1; 4.08 µM (inactive) with PC-3; 7.21 µM (inactive) with SNB-75. Also, the GI50 in the assay with UACC-62 is 4.16 µM (inactive); in the assay with M14, 3.82 µM (inactive); with Hs-578T it was 6.25 µM (inactive); with T47D, 12.2 µM (inactive); in the assay on KM12 it was 9.98 µM (inactive); with ACHN, 10.4 µM (inactive).

For the compound `O=C(NNc1nc(-c2ccccc2)cs1)Nc1ccccc1`, the GI50 was 30.9 µM (inactive) with SN12C; 26.6 µM in the assay on HCT-15; 6.14 µM (inactive) with RXF 393; 13.9 µM (inactive) in the assay on OVCAR-3; 16.1 µM (inactive) with SK-MEL-2; 44.1 µM (inactive) with SNB-19. Further, the GI50 in the assay on SK-MEL-5 is 20.7 µM (inactive); in the assay on OVCAR-5 it was 29.4 µM (inactive); with K562 it was 34.4 µM (inactive); in the assay on MCF7, 25.3 µM (inactive); with IGROV-1, 34.8 µM (inactive); in the assay on PC-3 it was 17.3 µM (inactive). The GI50 with SNB-75 was 23.2 µM (inactive); in the assay on UACC-62, 19.4 µM (inactive); in the assay on M14 it was 28.5 µM (inactive); in the assay on Hs-578T, 28.9 µM (inactive); in the assay on T47D it was 23.2 µM (inactive); in the assay with KM12, 32.9 µM (inactive). Further, the GI50 in the assay with ACHN was 37.5 µM (inactive).

Consider `CCOC(=O)c1cccc([N+](=O)[O-])c1N`, for which the GI50 with SN12C is > 100 µM (inactive); in the assay with HCT-15 it was greater than 100 µM; with OVCAR-3, > 100 µM (inactive); in the assay on SK-MEL-2, > 100 µM (inactive); in the assay on SNB-19, > 100 µM (inactive); with SK-MEL-5, > 100 µM (inactive). Moreover, the GI50 in the assay on OVCAR-5, in the assay on K562, in the assay with MCF7, in the assay with IGROV-1, with HOP-92 and with PC-3 was > 100 µM (inactive) each time. For the same compound, the GI50 in the assay on SNB-75 is 62.1 µM (inactive); in the assay on UACC-62, > 100 µM (inactive); in the assay on M14, > 100 µM (inactive); in the assay on Hs-578T, 41.2 µM (inactive); in the assay with T47D, > 100 µM (inactive); with KM12, > 100 µM (inactive). In the assay on ACHN, the GI50 is > 100 µM (inactive).

Consider `CC(O)C1(CNc2cc(Cl)nc(N)n2)CCC1` (stereo unspecified), for which the GI50 is > 100 µM (inactive) in the assay with SN12C; greater than 100 µM in the assay on HCT-15; 24.2 µM (inactive) in the assay with RXF 393; > 100 µM (inactive) in the assay on OVCAR-3; > 100 µM (inactive) in the assay with SK-MEL-2; > 100 µM (inactive) with SNB-19. In addition, the GI50 was 70.1 µM (inactive) in the assay on SK-MEL-5; > 100 µM (inactive) in the assay on OVCAR-5; > 100 µM (inactive) in the assay on K562; > 100 µM (inactive) with MCF7; > 100 µM (inactive) with IGROV-1; > 100 µM (inactive) in the assay with HOP-92. Further, the GI50 in the assay on PC-3 was > 100 µM (inactive); in the assay with UACC-62, 89.9 µM (inactive); in the assay with Hs-578T, > 100 µM (inactive); with T47D it was 33.3 µM (inactive); in the assay on KM12, > 100 µM (inactive); with ACHN it was > 100 µM (inactive).

Consider `C=CCNC(=S)N/C=C(\C(=O)OCC)C(=O)C(=O)OCC`, for which the GI50 with SN12C is > 100 µM (inactive); in the assay with HCT-15, greater than 100 µM; in the assay with RXF 393, > 100 µM (inactive); in the assay on OVCAR-3, > 100 µM (inactive); with SK-MEL-2, > 100 µM (inactive); in the assay on SNB-19, > 100 µM (inactive). The GI50 with SK-MEL-5, with OVCAR-5, in the assay on K562, in the assay on MCF7, in the assay with IGROV-1 and in the assay with PC-3 was > 100 µM (inactive) each time. In addition, the GI50 in the assay on SNB-75, in the assay with UACC-62, in the assay with M14, with Hs-578T, in the assay with T47D and in the assay with KM12 was > 100 µM (inactive) each time. Besides, the GI50 in the assay on ACHN is > 100 µM (inactive).

On to `COc1cc(/C=C/C(=O)CC(=O)/C=C/c2cc(C)c(O)c(OC)c2)cc(C)c1O`, for which the GI50 was > 100 µM (inactive) with SN12C; greater than 100 µM in the assay on HCT-15; 83.4 µM (inactive) with OVCAR-3; > 100 µM (inactive) in the assay with SK-MEL-2; > 100 µM (inactive) with SNB-19; > 100 µM (inactive) in the assay on SK-MEL-5. For the same compound, the GI50 in the assay with OVCAR-5 was > 100 µM (inactive); with K562, > 100 µM (inactive); in the assay on MCF7, 52.8 µM (inactive); in the assay with IGROV-1, > 100 µM (inactive); in the assay with HOP-92, < 0.01 µM (active); with PC-3, > 100 µM (inactive). Moreover, the GI50 with SNB-75, in the assay with UACC-62, in the assay on M14, in the assay with Hs-578T, in the assay with T47D and with KM12 was > 100 µM (inactive) each time. Moreover, the GI50 in the assay on ACHN was > 100 µM (inactive).

`CC1=[N+]([O-])C2(CCCC2)N(O)C1(C)C`: the GI50 with SN12C is > 100 µM (inactive); with HCT-15 it was greater than 100 µM; with RXF 393, > 100 µM (inactive); with OVCAR-3 it was > 100 µM (inactive); in the assay on SK-MEL-2, > 100 µM (inactive); with SNB-19, > 100 µM (inactive). The GI50 with SK-MEL-5, with OVCAR-5, in the assay with K562, in the assay on MCF7, in the assay on IGROV-1 and in the assay on HOP-92 was > 100 µM (inactive) throughout. Moreover, the GI50 in the assay with PC-3, with UACC-62, in the assay on M14, with Hs-578T, in the assay with T47D and with KM12 was > 100 µM (inactive) each time. In addition, the GI50 with ACHN was > 100 µM (inactive).

With `O=C(CCc1ccc(O)c(O)c1)c1ccc(O)c(O)c1O`, the GI50 in the assay on SN12C is 15.3 µM (inactive); in the assay with HCT-15 it was 14.7 µM; in the assay on SK-MEL-2, 58.7 µM (inactive); in the assay on SNB-19, 34.4 µM (inactive); with SK-MEL-5 it was 17.3 µM (inactive); in the assay with OVCAR-5, 21.2 µM (inactive). The GI50 in the assay on K562 was 13.2 µM (inactive); in the assay on MCF7, 19.1 µM (inactive); with IGROV-1 it was 25.1 µM (inactive); in the assay on HOP-92 it was 22.3 µM (inactive); in the assay with PC-3 it was 34.5 µM (inactive); in the assay with SNB-75 it was 19.1 µM (inactive). In addition, the GI50 with UACC-62 is 25.9 µM (inactive); in the assay on M14, 16.8 µM (inactive); in the assay with Hs-578T it was 23.6 µM (inactive); with T47D, 23.7 µM (inactive); in the assay with KM12 it was 17.3 µM (inactive); in the assay with ACHN, 14.3 µM (inactive).
